Measured values published in ChEMBL document CHEMBL6087406, “2-Arylhydrazinylidene-3-oxo-3-polyfluoroalkylpropanoic acids as selective and effective carboxylesterase inhibitors with powerful antioxidant potential” (Bioorg Med Chem, 2024).
The source made the active and inactive calls. No cut-off for these calls is given here.

Legend:
[1] = Antioxidant activity assessed as trolox equivalent of FRAP radical scavenging activity measured after 1 hrs by spectrophotometric analysis; type: functional
[2] = Antioxidant activity assessed as ORAC radical scavenging activity by measuring fold change in trolox equivalent at 10 uM measured for 2 hrs by AAPH based fluorescence microplate reader relative to trolox; type: functional
[3] = Antioxidant activity against AAPH-induced oxidative stress in Sprague-Dawley rat erythrocytes assessed as inhibition of lipid peroxidation by measuring fold change at 100 uM preincubated for 15 mins followed by AAPH addition and measured after 3 hrs by TBARS assay (reference value: 1); type: functional, Erythrocyte; conditions: time 195 min, 3.25 h
[4] = Antioxidant activity against AAPH-induced oxidative stress in Sprague-Dawley rat erythrocytes assessed as membrane stabilizing activity by measuring hemolysis at 100 uM preincubated for 15 mins followed by AAPH addition and measured after 3 hrs by microplate reader analysis (reference value: 88.6 +/- 3.7%); type: functional, Erythrocyte; conditions: time 195 min, 3.25 h
[5] = Antioxidant activity assessed as ABTS radical scavenging activity by measuring trolox equivalent antioxidant capacity after 1 hrs by UV/Vis microplate spectrophotometric analysis; type: functional
[6] = Antioxidant activity assessed as reduction in ABTS radical measured after 1 hrs by UV/Vis microplate spectrophotometric analysis; type: functional
[7] = Antioxidant activity assessed as trolox equivalent of ORAC radical scavenging activity at 10 uM measured for 2 hrs by AAPH based fluorescence microplate reader; type: functional
[8] = target: Acetylcholinesterase (Homo sapiens) (UniProt P22303); test: Inhibition of human erythrocyte acetylcholinesterase using acetylthiocholine as substrate at 20 uM by Ellman's method relative to control
[9] = target: Cholinesterase (Equus caballus) (UniProt P81908); test: Inhibition of equine serum butyrylcholinesterase using butyrylthiocholine as substrate at 20 uM by Ellman's method relative to control
Liver carboxylesterase [10] = target: T1, Liver carboxylesterase (Sus scrofa, UniProt Q29550); test: Inhibition of porcine liver carboxylesterase using 4-nitrophenylacetate as substrate assessed as release of 4-nitrophenol by spectrophotometric analysis
T1 sequence (Q29550 whole entry): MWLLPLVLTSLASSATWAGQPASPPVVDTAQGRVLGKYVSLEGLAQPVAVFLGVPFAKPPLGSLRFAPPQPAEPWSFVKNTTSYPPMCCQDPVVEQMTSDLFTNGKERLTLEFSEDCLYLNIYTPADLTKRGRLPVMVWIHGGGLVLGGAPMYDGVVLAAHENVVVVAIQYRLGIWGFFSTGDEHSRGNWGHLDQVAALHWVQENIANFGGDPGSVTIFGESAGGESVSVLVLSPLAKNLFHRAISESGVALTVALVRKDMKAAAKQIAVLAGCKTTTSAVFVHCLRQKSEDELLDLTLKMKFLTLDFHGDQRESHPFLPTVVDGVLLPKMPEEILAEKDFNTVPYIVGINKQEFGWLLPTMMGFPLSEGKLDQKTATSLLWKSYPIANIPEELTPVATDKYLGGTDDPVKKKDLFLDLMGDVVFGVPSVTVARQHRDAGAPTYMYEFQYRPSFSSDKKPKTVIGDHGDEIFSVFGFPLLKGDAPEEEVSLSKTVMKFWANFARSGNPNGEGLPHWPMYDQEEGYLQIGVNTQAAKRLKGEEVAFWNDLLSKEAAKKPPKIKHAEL

Liver carboxylesterase [11] = target: T1, Liver carboxylesterase; test: Inhibition of porcine liver carboxylesterase using 4-nitrophenylacetate as substrate assessed as release of 4-nitrophenol at 20 uM by spectrophotometric analysis relative to control; conditions: pig, porcine liver carboxylesterase (isolated enzyme), probe 4-nitrophenylacetate
Cocaine esterase = target: T2, Cocaine esterase (Homo sapiens, UniProt O00748); test: Inhibition of human CES2 using 4-nitrophenylacetate as substrate assessed as release of 4-nitrophenol by spectrophotometric analysis
T2 sequence (O00748 whole entry): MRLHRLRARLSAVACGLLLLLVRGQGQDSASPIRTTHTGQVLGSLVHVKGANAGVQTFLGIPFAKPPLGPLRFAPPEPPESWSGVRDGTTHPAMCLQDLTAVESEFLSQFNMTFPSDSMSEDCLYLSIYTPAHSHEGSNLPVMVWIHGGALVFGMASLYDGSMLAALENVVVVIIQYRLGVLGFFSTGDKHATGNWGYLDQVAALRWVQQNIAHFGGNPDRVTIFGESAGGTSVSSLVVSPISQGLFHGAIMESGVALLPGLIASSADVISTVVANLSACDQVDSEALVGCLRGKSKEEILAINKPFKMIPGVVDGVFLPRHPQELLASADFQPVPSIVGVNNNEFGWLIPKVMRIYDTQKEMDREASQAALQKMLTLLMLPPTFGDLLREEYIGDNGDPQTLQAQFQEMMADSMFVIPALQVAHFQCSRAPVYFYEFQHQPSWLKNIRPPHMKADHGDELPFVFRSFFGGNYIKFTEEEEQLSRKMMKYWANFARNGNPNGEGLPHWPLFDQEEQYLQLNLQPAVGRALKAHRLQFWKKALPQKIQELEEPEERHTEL

Liver carboxylesterase 1 = target: T3, Liver carboxylesterase 1 (Homo sapiens, UniProt P23141); test: Inhibition of human CES1 using 4-nitrophenylacetate as substrate assessed as release of 4-nitrophenol by spectrophotometric analysis
T3 sequence (P23141 whole entry): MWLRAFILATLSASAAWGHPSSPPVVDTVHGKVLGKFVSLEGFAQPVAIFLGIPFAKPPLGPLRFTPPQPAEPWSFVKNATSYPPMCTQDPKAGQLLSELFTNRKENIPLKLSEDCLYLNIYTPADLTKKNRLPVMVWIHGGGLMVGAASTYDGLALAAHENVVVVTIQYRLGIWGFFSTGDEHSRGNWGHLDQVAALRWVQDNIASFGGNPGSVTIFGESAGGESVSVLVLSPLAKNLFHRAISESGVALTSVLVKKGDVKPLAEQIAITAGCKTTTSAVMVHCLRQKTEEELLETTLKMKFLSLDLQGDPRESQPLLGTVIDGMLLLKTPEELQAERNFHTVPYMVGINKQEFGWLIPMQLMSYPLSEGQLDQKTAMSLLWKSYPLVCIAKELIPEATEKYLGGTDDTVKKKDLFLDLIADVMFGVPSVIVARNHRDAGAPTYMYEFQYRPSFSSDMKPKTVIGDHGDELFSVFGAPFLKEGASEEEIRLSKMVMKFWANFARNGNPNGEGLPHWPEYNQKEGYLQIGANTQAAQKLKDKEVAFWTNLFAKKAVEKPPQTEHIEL

[12] = Hemolytic activity in AAPH-induced Sprague-Dawley rat erythrocytes assessed as hemolysis at 100 uM measured after 3 hrs by microplate reader analysis relative to control; type: toxicity, cell-based, Erythrocyte; conditions: read-out: Activity
[13] = Metal chelating activity assessed as Fe2+-compound complex formation by measuring absorbance at 400 uM measured after 30 mins in presence of FeCl2.4H2O by UV-Vis spectroscopic analysis (reference value: 225 to 374 nanometer)

Chain of Acetylcholinesterase (Homo sapiens) (P22303 whole entry): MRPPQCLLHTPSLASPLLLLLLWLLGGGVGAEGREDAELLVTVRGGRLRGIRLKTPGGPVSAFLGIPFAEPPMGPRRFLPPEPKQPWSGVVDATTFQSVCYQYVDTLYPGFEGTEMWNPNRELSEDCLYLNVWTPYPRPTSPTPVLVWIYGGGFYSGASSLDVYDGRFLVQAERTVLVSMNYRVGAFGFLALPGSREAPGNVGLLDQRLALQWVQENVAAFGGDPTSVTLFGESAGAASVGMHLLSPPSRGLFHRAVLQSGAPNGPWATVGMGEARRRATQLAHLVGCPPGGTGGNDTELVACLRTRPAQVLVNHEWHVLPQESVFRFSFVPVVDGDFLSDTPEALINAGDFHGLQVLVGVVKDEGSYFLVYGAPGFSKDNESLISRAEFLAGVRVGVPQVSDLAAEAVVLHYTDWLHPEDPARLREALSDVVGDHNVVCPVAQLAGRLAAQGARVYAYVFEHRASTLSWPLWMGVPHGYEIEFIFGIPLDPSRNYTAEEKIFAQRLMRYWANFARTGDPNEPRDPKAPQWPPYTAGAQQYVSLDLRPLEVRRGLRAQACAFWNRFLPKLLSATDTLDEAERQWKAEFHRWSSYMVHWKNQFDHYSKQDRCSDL
Chain of Cholinesterase (Equus caballus) (P81908 whole entry): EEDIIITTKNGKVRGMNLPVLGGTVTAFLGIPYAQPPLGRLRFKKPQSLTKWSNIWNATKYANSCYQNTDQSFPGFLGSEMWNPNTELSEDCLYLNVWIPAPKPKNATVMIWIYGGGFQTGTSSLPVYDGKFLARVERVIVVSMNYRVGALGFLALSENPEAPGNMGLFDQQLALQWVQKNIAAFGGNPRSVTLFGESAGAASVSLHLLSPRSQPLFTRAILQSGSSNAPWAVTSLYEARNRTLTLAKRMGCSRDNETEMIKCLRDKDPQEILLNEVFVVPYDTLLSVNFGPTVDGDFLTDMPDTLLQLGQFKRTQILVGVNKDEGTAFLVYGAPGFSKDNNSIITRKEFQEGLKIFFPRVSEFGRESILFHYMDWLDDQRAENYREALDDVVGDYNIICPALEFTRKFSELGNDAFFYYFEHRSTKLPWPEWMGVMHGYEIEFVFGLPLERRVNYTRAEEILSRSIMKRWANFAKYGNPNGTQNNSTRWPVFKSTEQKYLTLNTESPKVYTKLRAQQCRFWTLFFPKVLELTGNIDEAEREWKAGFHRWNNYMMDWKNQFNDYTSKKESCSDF

Row | Compound | Activity [1] | fold change (FC) [2] | fold change (FC) [3] | Activity [4] | Activity [5] | IC50 [6] | Activity [7] | inhibition [8] | inhibition [9] | IC50 (Liver carboxylesterase [10]) | inhibition at 20 µM (Liver carboxylesterase [11]) | IC50 (Cocaine esterase) | IC50 (Liver carboxylesterase 1) | hemolysis at 3 h, 100 µM [12] | Activity [13]
1 | O=C(O)/C(=N\Nc1ccc([N+](=O)[O-])cc1)C(=O)C(F)(F)F | 0.24 | > 3 | – | – | – | – | – | – | – | – | – | – | – | – | –
2 | Cc1c(C)c2c(c(C)c1O)CCC(C)(C(=O)O)O2 (stereo unspecified) [TROLOX] | 1 | – | 0.85 | 56.7% | 1 | 20.4 µM | 1 | – | – | – | – | – | – | – | –
3 | COc1ccc(N/N=C(\C(=O)O)C(=O)C(F)(F)C(F)F)cc1 | 1.9 | > 3 | – | – | 1.8 | 10.2 µM | 3.73 | 4.2% | 3.5% | 52.1 µM | – | – | – | – | –
4 | Cc1ccc(N/N=C(\C(=O)O)C(=O)C(F)F)cc1 | 2.1 | > 3 | – | – | 1.67 | 9.8 µM | 3.13 | 10.2% | inactive | – | 23.8% | – | – | – | –
5 | Cc1ccc(N/N=C(\C(=O)O)C(=O)C(F)(F)C(F)(F)F)cc1 | 1.71 | > 3 | – | – | 1.45 | 9.9 µM | 3.7 | 10.2% | 15.5% | 0.122 µM | – | – | – | – | –
6 | CC(=O)/C(=N/Nc1ccc(C)cc1)C(=O)O | 1.69 | > 3 | – | – | – | – | 3.37 | – | – | – | – | – | – | – | –
7 | COc1ccc(N/N=C(\C(=O)O)C(=O)C(F)(F)C(F)(F)C(F)(F)C(F)(F)F)cc1 | 1.68 | > 3 | – | – | 1.9 | 9.5 µM | 3.87 | 4.4% | 19.9% | 0.297 µM | – | – | – | – | –
8 | O=C(O)/C(=N\Nc1ccccc1)C(=O)C(F)(F)F | 1.48 | > 3 | – | – | 1.6 | 8.6 µM | 3.7 | 16.5% | 4% | 0.75 µM | – | – | – | – | –
9 | O=[N+]([O-])c1ccc(OP(=O)(O)Oc2ccc([N+](=O)[O-])cc2)cc1 | – | – | – | – | – | – | – | inactive | inactive | – | – | – | – | – | –
10 | CCOC(=O)c1ccccc1N/N=C(\C(=O)O)C(=O)C(F)(F)F | – | > 3 | – | – | – | – | – | – | – | – | – | – | – | – | –
11 | Cc1ccc(N/N=C(\C(=O)O)C(=O)C(F)(F)F)cc1 | 2.63 | > 3 | – | – | – | – | 3.03 | – | – | – | – | 0.097 µM | 0.921 µM | – | –
12 | Cc1ccc(N/N=C(\C(=O)O)C(=O)C(F)(F)C(F)(F)C(F)(F)F)cc1 | 0.68 | > 3 | – | – | 1.97 | 9.1 µM | 3.27 | 14.7% | 11.6% | 0.047 µM | – | – | – | – | –
13 | CCOC(=O)c1ccc(N/N=C(/C(C)=O)C(=O)O)cc1 | 0.19 | – | – | – | 1.36 | 10.2 µM | 0.47 | inactive | inactive | – | 16.1% | – | – | – | –
14 | CCOC(=O)c1ccc(N/N=C(\C(=O)O)C(=O)C(F)(F)F)cc1 | – | > 3 | – | – | – | – | – | – | – | – | – | – | – | – | –
15 | COc1ccc(N/N=C(\C(=O)O)C(=O)C(F)(F)F)cc1 | 2.77 | > 3 | 0.64 | 58.6% | – | – | 3.6 | – | – | – | – | – | – | 2% | 267 nm
16 | Cc1ccc(N/N=C(\C(=O)O)C(=O)C(F)(F)C(F)F)cc1 | 1.69 | > 3 | – | – | 1.7 | 9.3 µM | – | inactive | 5.7% | 5.58 µM | – | – | – | – | –
17 | CC(=O)/C(=N/Nc1ccccc1)C(=O)O | 0.79 | > 3 | – | – | 1.6 | 9.8 µM | 3.43 | 4.7% | inactive | – | 17.9% | – | – | – | –
18 | CC(=O)/C(=N/Nc1ccc(C(=O)O)cc1)C(=O)O | 0.41 | > 3 | – | – | 1.25 | 10.3 µM | 2.2 | 5.8% | 8.2% | – | 18.6% | – | – | – | –
19 | CCOC(=O)c1ccccc1N/N=C(\C(=O)O)C(=O)C(F)(F)C(F)(F)C(F)(F)C(F)(F)F | – | > 3 | – | – | 0.02 | – | 1.7 | 24% | 13.7% | 0.14 µM | – | – | – | – | –
